Consider one compound from ChEMBL document CHEMBL5247652, “Discovery of Novel Substrate-Competitive Lysine Methyltransferase G9a Inhibitors as Anticancer Agents” (J Med Chem, 2023).

Data set [1] in a line: Drug concentration in C57BL/6 mouse liver at 20 mg/kg, ip measured after 4 hrs. Type of data set: ADME, organism-based. The note with it: read-out: Ct.
Data set [2] in a line: Tmax in ICR mouse at 25 mg/kg, ip. Type of data set: ADME, organism-based. The note with it: in vivo.
The test system of data set [3] is Mus musculus. The experiment in a line: In vivo inhibition of G9a in C57BL/6 mouse liver assessed as H3 histone methylation at 20 to 50 mg/kg, ip measured after 5 days by Westernblot analysis. Type of data set: functional, organism-based. The note with it: dose 20-50 mg/kg, time 5.0 day.
Data set [4] is described as follows: Cmax in ICR mouse at 25 mg/kg, ip. Type of data set: ADME, organism-based. Set-up: dose 25 mg/kg, route ip. Conditions: in vivo.
Data set [5] in a line: Half life in ICR mouse at 25 mg/kg, ip. Type of data set: ADME, organism-based. The note with it: in vivo.
Data set [6] deals with MOLT-4. The experiment in a line: Antiproliferative activity against human MOLT-4 cells assessed as inhibition of cell growth with replenishment of medium with compound on day 4 and 7 and measured after 12 days by ATPlite assay. Type of data set: functional. Conditions: MOLT-4, 288 h, time 12 day.
Data set [7] deals with HCC. The data set is described as follows: Antitumor activity against DEN-induced […] HCC tumor in C57BL/6 mouse at 20 to 50 mg/kg, ip measured after 48 weeks. Type of data set: functional, organism-based. Conditions: dose 20-50 mg/kg.
Data set [8] can be described thus: Drug concentration in C57BL/6 mouse liver at 50 mg/kg, ip measured after 4 hrs. Conditions: read-out: Ct. Type of data set: ADME, organism-based.
In data set [9] the test system is MOLT-4. The experiment in a line: Downregulation of H3K9 dimethylation in human MOLT-4 cells at 1 uM by Western blot analysis. Type of data set: functional, cell-based.
Data set [10] has as its system Mus musculus. The data set is described as follows: In vivo inhibition of G9a in C57BL/6 mouse liver assessed as reduction in H3K9me2 level at 20 to 50 mg/kg, ip measured after 5 days by Westernblot analysis. Type of data set: functional, organism-based. Conditions: dose 20-50 mg/kg, time 5.0 day.
The nature of data set [11]: Drug concentration in C57BL/6 mouse plasma at 20 mg/kg, ip measured after 4 hrs. Type of data set: ADME, organism-based.
Data set [12] is described as follows: Drug concentration in C57BL/6 mouse plasma at 50 mg/kg, ip measured after 4 hrs. Type of data set: ADME, organism-based.
Data set [13] addresses T1, Histone-lysine N-methyltransferase EHMT2 (Homo sapiens, UniProt Q96KQ7).
T1 sequence (Q96KQ7 whole entry): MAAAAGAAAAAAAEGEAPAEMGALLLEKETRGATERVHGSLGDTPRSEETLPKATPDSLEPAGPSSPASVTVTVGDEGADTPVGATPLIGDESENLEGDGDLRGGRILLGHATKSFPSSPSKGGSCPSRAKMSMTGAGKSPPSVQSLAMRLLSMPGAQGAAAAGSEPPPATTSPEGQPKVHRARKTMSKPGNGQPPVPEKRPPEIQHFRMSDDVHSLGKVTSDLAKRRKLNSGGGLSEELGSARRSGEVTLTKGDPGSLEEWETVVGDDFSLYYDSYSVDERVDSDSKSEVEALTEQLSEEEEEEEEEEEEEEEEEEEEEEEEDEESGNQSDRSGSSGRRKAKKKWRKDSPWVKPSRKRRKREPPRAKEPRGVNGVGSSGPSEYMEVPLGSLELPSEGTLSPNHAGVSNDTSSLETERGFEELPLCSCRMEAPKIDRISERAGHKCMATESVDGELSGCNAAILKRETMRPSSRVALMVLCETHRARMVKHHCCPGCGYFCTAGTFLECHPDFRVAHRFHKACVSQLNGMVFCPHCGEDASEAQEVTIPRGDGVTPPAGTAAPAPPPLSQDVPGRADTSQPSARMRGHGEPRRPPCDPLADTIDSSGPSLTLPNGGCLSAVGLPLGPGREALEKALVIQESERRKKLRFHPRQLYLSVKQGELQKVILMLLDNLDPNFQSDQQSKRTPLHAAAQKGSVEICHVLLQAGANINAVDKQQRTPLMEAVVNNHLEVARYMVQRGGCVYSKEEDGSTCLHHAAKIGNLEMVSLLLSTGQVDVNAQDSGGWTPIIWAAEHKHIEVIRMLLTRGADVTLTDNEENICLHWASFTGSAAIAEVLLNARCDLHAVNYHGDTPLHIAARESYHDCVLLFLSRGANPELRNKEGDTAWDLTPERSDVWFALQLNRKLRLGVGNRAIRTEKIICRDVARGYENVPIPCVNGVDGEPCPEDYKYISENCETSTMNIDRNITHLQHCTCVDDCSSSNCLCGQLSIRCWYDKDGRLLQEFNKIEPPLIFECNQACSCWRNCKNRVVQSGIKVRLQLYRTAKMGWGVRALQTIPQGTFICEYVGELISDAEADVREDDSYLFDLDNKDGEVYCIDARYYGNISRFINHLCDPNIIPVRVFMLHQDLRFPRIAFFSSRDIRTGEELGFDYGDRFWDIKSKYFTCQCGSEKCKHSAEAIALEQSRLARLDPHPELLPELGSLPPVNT
The data set is described as follows: Inhibition of G9a (unknown origin).

The nature of data set [14]: AUC (0 to infinity) in ICR mouse at 25 mg/kg, ip. Type of data set: ADME, organism-based. Set-up: dose 25 mg/kg, route ip. The note with it: in vivo.
Data set [15] has as its target T2, Histone-lysine N-methyltransferase EHMT1 (Homo sapiens, UniProt Q9H9B1).
T2 sequence (Q9H9B1 whole entry): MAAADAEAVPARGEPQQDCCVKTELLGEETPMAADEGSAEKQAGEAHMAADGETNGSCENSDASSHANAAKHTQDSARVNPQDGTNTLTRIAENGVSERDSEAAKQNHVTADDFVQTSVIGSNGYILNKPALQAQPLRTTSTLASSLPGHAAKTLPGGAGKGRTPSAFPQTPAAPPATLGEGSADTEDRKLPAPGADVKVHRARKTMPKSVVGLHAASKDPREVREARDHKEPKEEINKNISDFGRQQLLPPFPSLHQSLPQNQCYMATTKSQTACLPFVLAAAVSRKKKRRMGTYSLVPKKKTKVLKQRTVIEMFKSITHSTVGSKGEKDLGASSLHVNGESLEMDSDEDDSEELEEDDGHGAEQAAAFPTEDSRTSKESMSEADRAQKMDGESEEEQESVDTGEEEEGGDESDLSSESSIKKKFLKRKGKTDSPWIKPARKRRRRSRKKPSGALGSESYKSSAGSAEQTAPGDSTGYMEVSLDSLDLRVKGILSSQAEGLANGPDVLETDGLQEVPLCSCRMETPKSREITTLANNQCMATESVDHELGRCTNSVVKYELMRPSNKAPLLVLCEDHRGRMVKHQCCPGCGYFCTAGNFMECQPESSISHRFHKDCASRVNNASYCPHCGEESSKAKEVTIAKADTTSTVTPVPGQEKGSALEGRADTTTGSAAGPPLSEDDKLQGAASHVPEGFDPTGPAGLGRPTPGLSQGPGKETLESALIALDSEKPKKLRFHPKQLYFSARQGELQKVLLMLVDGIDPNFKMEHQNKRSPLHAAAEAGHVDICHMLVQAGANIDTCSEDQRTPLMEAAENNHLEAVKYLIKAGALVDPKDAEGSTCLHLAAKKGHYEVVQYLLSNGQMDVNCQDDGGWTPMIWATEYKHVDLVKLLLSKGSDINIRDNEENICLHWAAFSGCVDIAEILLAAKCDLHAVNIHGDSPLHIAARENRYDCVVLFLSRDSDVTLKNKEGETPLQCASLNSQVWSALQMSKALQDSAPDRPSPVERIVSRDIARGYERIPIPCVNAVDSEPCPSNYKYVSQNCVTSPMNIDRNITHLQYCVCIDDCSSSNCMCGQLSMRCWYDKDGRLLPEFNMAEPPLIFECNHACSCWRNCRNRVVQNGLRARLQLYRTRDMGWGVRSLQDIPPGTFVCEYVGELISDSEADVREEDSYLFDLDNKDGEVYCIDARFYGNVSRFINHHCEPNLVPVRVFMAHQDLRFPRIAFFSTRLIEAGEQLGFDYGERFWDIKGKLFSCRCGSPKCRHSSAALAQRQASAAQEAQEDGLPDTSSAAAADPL
The experiment in a line: Inhibition of GLP (unknown origin).

A short description of data set [16]: Toxicity in C57BL/6 mouse assessed as body weight loss at 20 to 50 mg/kg, ip measured after 48 weeks. Type of data set: organism-based. Conditions: in vivo, 8064 h, dose 20-50 mg/kg.

Calls of active or inactive are those of the source. No cut-off for these calls is given here.

For the compound `Cc1c(C(=O)N[C@H](CCC2CC2)C(=O)Nc2ccc(C#N)cc2)[nH]c2c1C(=O)CC(C)(C)C2`, the concentration at 4 h was found to be 23.5 µM in data set [1], 46.9 µM in data set [8], 9.6 µM in data set [11] and 18.9 µM in data set [12]. Besides, in [2], the Tmax stood at 4 h. Besides, in data set [3], the inhibition result was “inactive”. In data set [4], the Cmax came to 42.4 µM. The same compound had a half-life in data set [5] of 1.4 h. For the same compound, in data set [6], the GI50 is 2.37 µM. Also, the result in data set [7] and in data set [10] was Active. Further, the result in data set [9] was inactive. Also, the results for the IC50 in data set [13] and in [15] were 0.027 µM and 0.053 µM, respectively. Also, in data set [14], the AUC(0-inf) amounted to 418 µM·h. In addition, the Activity entry in data set [16] is “Non-Toxic”.
